Read-outs that look alike come from different tables or passages of the source.
Legend:
Fyn = target: T1, Fyn (Homo sapiens, UniProt P06241); test: HTRF KinEASE-TK enzymatic assay, Fyn; format: biochemical; conditions: for IC50 / Inhibition (1 μM, %) Fyn: ATP at Km (51.76 µM), average of two independent experiments; for Inhibition (1 μM, %) Fyn: compound at 1 μM
T1 construct: purchased Carna Biosciences 08-168

Src = target: T2, Src (Homo sapiens, UniProt P12931); test: HTRF KinEASE-TK enzymatic assay, Src; format: biochemical; conditions: for Inhibition (1 μM, %) Src: compound at 1 μM, ATP at Km (16 µM), average of two independent experiments
T2 construct: purchased Carna Biosciences 08-173

U87 GBM cell line = test: Cell proliferation inhibition assay (MTT), U87; format: cell-based; conditions: 72 h, mean of at least three independent experiments, read-out: Antiproliferative activity IC50, U87
Protocol: (§1) GBM cell lines U87, U251, and T98G (purchased from the American Type Culture Collection Company, Manassas, VA) were cultured in Roswell Park Memorial Institute (RPMI) 1640 medium containing 10% foetal bovine serum (FBS) at 37 °C in 5% CO2 incubator. The U87-EGFRvIII cell line established with EGFRvIII, kindly provided by Professor Xingmei Zhang, and grown in DMEN supplement with 10% FBS and […] G418 (Sigma-Aldrich, St. Louis, MO) at 37 °C in 5% CO2 incubator. The anti-proliferative activities of the compounds to be tested against four glioblastoma cell lines were determined by standard MTT method. In order to determine the anti-proliferation effect of the tested compounds, four cell lines were inoculated at a density of 2 × 10^3 cells/ml and treated with compounds at a concentration of 1–100 µM. The cells were co-incubated with different concentrations of the tested drugs for 72 h, and 10% MTT solution diluted in 100 µL medium was added. After 4 h of incubation, the absorbance value of each hole was measured at […] with an enzyme-linked immunosorbent assay plate reader. All compounds were tested three times in each cell line.

[1] = system: U87-EGFRvIII GBM cell line; test: Cell proliferation inhibition assay (MTT), U87-EGFRvIII; format: cell-based; conditions: 72 h, mean of at least three independent experiments, read-out: Antiproliferative activity IC50, U87-EGFRvIII
T98G GBM cell line = test: Cell proliferation inhibition assay (MTT), T98G; format: cell-based; conditions: 72 h, mean of at least three independent experiments, read-out: Antiproliferative activity IC50, T98G
Protocol: as §1

U251 GBM cell line = test: Cell proliferation inhibition assay (MTT), U251; format: cell-based; conditions: mean of at least three independent experiments, read-out: Antiproliferative activity IC50, U251
Protocol: as §1

T1 sequence (P06241 whole entry): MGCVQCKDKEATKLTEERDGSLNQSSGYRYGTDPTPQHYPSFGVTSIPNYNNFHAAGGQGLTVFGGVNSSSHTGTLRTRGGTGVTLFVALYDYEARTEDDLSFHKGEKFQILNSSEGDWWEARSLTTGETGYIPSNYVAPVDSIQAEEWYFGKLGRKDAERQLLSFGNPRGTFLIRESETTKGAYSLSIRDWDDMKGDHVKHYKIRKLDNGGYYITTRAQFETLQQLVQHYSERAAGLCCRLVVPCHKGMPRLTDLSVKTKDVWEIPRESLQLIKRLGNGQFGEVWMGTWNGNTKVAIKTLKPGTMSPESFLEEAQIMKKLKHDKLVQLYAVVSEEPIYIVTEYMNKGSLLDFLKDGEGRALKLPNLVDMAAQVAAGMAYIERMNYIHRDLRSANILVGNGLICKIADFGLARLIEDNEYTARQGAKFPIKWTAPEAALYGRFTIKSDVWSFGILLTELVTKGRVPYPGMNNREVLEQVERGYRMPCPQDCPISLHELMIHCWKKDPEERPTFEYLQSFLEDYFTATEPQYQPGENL

Compound | inhibition at 1 µM (Fyn) [%] | inhibition at 1 µM (Src) [%] | other results
Nc1nccc2c1n(-c1ccc3[nH]ccc3c1)c(=O)n2C1CCCC1 [Compound 1r, 4-amino-1-cyclopentyl-3-(1H-indol-5-yl)-1,3-dihydro-2H-imidazo[4,5-c]pyridin-2-one] | 30 | 84 | 
Cc1ccc(-n2c(=O)n(C3CCCC3)c3ccnc(N)c32)cc1 [Compound 1k, 4-amino-1-cyclopentyl-3-(p-tolyl)-1,3-dihydro-2H-imidazo[4,5-c]pyridin-2-one] | 65 | 88 | 
Nc1nccc2c1n(-c1ccc(Cl)cc1)c(=O)n2CCN1CCOCC1 [Compound 1j, 4-amino-3-(4-chlorophenyl)-1-(2-morpholinoethyl)-1H-imidazo[4,5-c]pyridin-2(3H)-one] | 12 | 5 | 
CC(C)(C)n1nc(-c2ccc(Cl)cc2)c2c(N)ncnc21 [PP2, reference compound] |  | 93 | IC50 (U87 GBM cell line): 39.9 ± 6.91 µM; IC50 (T98G GBM cell line; Homo sapiens, T98G): 12.5 ± 2.37 µM; IC50 (U251 GBM cell line; Homo sapiens, U-251, 72 h): 21.1 ± 2.16 µM
Nc1nccc2c1n(-c1ccc(Cl)cc1)c(=O)n2C1CCCC1 [Compound 1d, 4-amino-3-(4-chlorophenyl)-1-cyclopentyl-1,3-dihydro-2H-imidazo[4,5-c]pyridin-2-one] | 90 | 96 | IC50 (U87 GBM cell line): 63.3 ± 10.5 µM; IC50 (Fyn): 0.24 µM; IC50 [1]: 67.2 ± 3.2 µM; IC50 (T98G GBM cell line; Homo sapiens, T98G): 20.6 ± 0.3 µM; IC50 (U251 GBM cell line; Homo sapiens, U-251, 72 h): 33.3 ± 3.36 µM; IC50 (Src): 0.19 µM
4-amino-1-(3-bromophenyl)-3-(4-chlorophenyl)-1H-imidazo[4,5-c]pyridin-2(3H)-one [Compound 1c] |  |  | Inhibition (1 μM, %) Fyn (Fyn): 31%; Inhibition (1 μM, %) Src (Src): 68%
Nc1nccc2c1n(-c1ccc(Cl)cc1)c(=O)n2-c1ccccc1 [Compound 1a, 4-amino-3-(4-chlorophenyl)-1-phenyl-1H-imidazo[4,5-c]pyridin-2(3H)-one] | 35 | 78 | 
COCCn1c(=O)n(-c2ccc(Cl)cc2)c2c(N)nccc21 [Compound 1i, 4-amino-3-(4-chlorophenyl)-1-(2-methoxyethyl)-1H-imidazo[4,5-c]pyridin-2(3H)-one] | 24 | 65 | 
4-amino-3-(4-chlorophenyl)-1-(m-tolyl)-1H-imidazo[4,5-c]pyridin-2(3H)-one [Compound 1b] |  |  | Inhibition (1 μM, %) Fyn (Fyn): 11%; Inhibition (1 μM, %) Src (Src): 54%
Nc1nccc2c1n(-c1cccc(F)c1)c(=O)n2C1CCCC1 [Compound 1p, 4-amino-1-cyclopentyl-3-(3-fluorophenyl)-1,3-dihydro-2H-imidazo[4,5-c]pyridin-2-one] | 19 | 66 | 
Nc1nccc2c1n(-c1ccc(CO)cc1)c(=O)n2C1CCCC1 [Compound 1o, 4-amino-1-cyclopentyl-3-(4-(hydroxymethyl)phenyl)-1,3-dihydro-2H-imidazo[4,5-c]pyridin-2-one] | 20 | 19 | 

The next lines start with results.

inhibition at 1 µM (Fyn) [%] | inhibition at 1 µM (Src) [%] | Compound | other results
90 | 93 | Nc1nccc2c1n(-c1ccc(Oc3ccccc3)cc1)c(=O)n2C1CCCC1 [Compound 1s, 4-amino-1-cyclopentyl-3-(4-phenoxyphenyl)-1,3-dihydro-2H-imidazo[4,5-c]pyridin-2-one] | IC50 (U87 GBM cell line): 30.3 ± 0.84 µM; IC50 (Fyn): 0.21 µM; IC50 [1]: 50.5 µM; IC50 (T98G GBM cell line): 16.4 ± 2.12 µM; IC50 (T98G GBM cell line; Homo sapiens, T98G): 16.4 µM; IC50 (U251 GBM cell line; 72 h): 24.6 ± 2.28 µM; IC50 (U251 GBM cell line; Homo sapiens, U-251, 72 h): 24.6 µM; IC50 (Src): 0.15 µM
28 | 91 | COc1ccc(-n2c(=O)n(C3CCCC3)c3ccnc(N)c32)cc1 [Compound 1l, 4-amino-1-cyclopentyl-3-(4-methoxyphenyl)-1,3-dihydro-2H-imidazo[4,5-c]pyridin-2-one] | 
44 | 45 | N#Cc1ccc(-n2c(=O)n(C3CCCC3)c3ccnc(N)c32)cc1 [Compound 1n, 4-(4-amino-1-cyclopentyl-2-oxo-1,2-dihydro-3H-imidazo[4,5-c]pyridin-3-yl)benzonitrile] | 
19 | 18 | CN(C)CCn1c(=O)n(-c2ccc(Cl)cc2)c2c(N)nccc21 [Compound 1h, 4-amino-3-(4-chlorophenyl)-1-(2-(dimethylamino)ethyl)-1H-imidazo[4,5-c]pyridin-2(3H)-one] | 
76 | 88 | Nc1nccc2c1n(-c1ccc(Cl)cc1)c(=O)n2C1CCCCC1 [Compound 1e, 4-amino-3-(4-chlorophenyl)-1-cyclohexyl-1H-imidazo[4,5-c]pyridin-2(3H)-one] | IC50 (U87 GBM cell line): 53.6 ± 2.51 µM; IC50 (Fyn): 0.58 µM; IC50 [1]: > 100 µM; IC50 (T98G GBM cell line; Homo sapiens, T98G): 20.1 ± 0.67 µM; IC50 (U251 GBM cell line; Homo sapiens, U-251, 72 h): 36.1 ± 2.53 µM; IC50 (Src): 0.073 µM
-2 | 11 | Nc1nccc2c1n(-c1ccc(C(F)(F)F)cc1)c(=O)n2C1CCCC1 [Compound 1m, 4-amino-1-cyclopentyl-3-(4-(trifluoromethyl)phenyl)-1,3-dihydro-2H-imidazo[4,5-c]pyridin-2-one] | 
19 | 16 | CC(C)Cn1c(=O)n(-c2ccc(Cl)cc2)c2c(N)nccc21 [Compound 1g, 4-amino-3-(4-chlorophenyl)-1-isobutyl-1H-imidazo[4,5-c]pyridin-2(3H)-one] | 
74 | 85 | Nc1nccc2c1n(-c1ccc3c(c1)OCO3)c(=O)n2C1CCCC1 [Compound 1q, 4-amino-3-(benzo[d][1,3]dioxol-5-yl)-1-cyclopentyl-1H-imidazo[4,5-c]pyridin-2(3H)-one] | IC50 (U87 GBM cell line): 47 ± 3.78 µM; IC50 (Fyn): 0.73 µM; IC50 [1]: 69 ± 8.39 µM; IC50 (T98G GBM cell line; Homo sapiens, T98G): 20.7 ± 0.67 µM; IC50 (U251 GBM cell line; Homo sapiens, U-251, 72 h): 30 ± 0.93 µM; IC50 (Src): 0.22 µM
62 | 84 | CC(C)(C)n1c(=O)n(-c2ccc(Cl)cc2)c2c(N)nccc21 [Compound 1f, 4-amino-1-(tert-butyl)-3-(4-chlorophenyl)-1H-imidazo[4,5-c]pyridin-2(3H)-one] | 
